This is an account of results in PubChem BioAssay (NCI).

Among the test systems are CAKI-1 renal; HCT-15 colon; RPMI-8226 leukemia; RXF 393 renal; SF-268 CNS; SK-OV-3 ovarian; SN12C renal; SW-620 colon; UO-31 renal; NCI-H23 lung.
Holding throughout (assay): NCI tumour cell line growth inhibition, 48 h

Values joined by “and” are separate entries in the source; they are usually repeats but may differ in a detail not shown here. Equal values may be shown once.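 The compound was tested at five concentrations on cells cultured in 96-well plates, with a 48-hour exposure period. Abbreviation: GI50, concentration required for 50% inhibition of growth. TGI: concentration producing complete growth inhibition.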 Where only a bound is given, the exact number is not on record here.

For `c1ccc([As]=[As]c2ccccc2)cc1` (configuration not stated), the GI50 in the assay with CAKI-1 renal is 1.31 µM; with HCT-15 colon it was 0.416 µM; in the assay on RPMI-8226 leukemia it was 0.543 µM; in the assay on RXF 393 renal, 0.58 µM; in the assay with SF-268 CNS it was 0.886 µM; in the assay with SK-OV-3 ovarian, 1.82 µM. For the same compound, the GI50 with SN12C renal was 1.21 µM; in the assay with SW-620 colon it was 0.586 µM; with UO-31 renal it was 0.973 µM. In addition, the TGI was found to be 3.22 µM in the assay on CAKI-1 renal; 2.24 µM in the assay on HCT-15 colon; 2.97 µM in the assay with RPMI-8226 leukemia; 2.04 µM in the assay with RXF 393 renal; 2.45 µM with SF-268 CNS; 3.48 µM with SK-OV-3 ovarian. The TGI with SN12C renal came out at 3.07 µM; in the assay with SW-620 colon, 2.02 µM; with UO-31 renal, 2.39 µM.
For `CN(C)c1ccc(C(c2ccc(Cl)cc2)c2ccc(N(C)C)cc2)cc1`, the TGI in the assay with CAKI-1 renal, in the assay with HCT-15 colon, in the assay on NCI-H23 lung, in the assay with RPMI-8226 leukemia, with RXF 393 renal and with SF-268 CNS was above 100 µM throughout. Besides, the TGI in the assay on SK-OV-3 ovarian, in the assay with SN12C renal, in the assay on SW-620 colon and in the assay with UO-31 renal was above 100 µM each time.
In the case of `CNS(=O)(=O)OCC1OC(n2cnc3c(N)ncnc32)C(O)C1O` (configuration not stated), the GI50 in the assay on CAKI-1 renal, with HCT-15 colon, in the assay with NCI-H23 lung, with RPMI-8226 leukemia, with RXF 393 renal and in the assay on SF-268 CNS was above 100 µM in each case. Besides, the GI50 in the assay on SK-OV-3 ovarian, in the assay with SN12C renal, in the assay on SW-620 colon and with UO-31 renal was above 100 µM throughout. Besides, the TGI with CAKI-1 renal, in the assay with HCT-15 colon, in the assay with NCI-H23 lung, in the assay with RPMI-8226 leukemia, with RXF 393 renal and in the assay on SF-268 CNS was above 100 µM throughout. Besides, the TGI in the assay on SK-OV-3 ovarian, in the assay on SN12C renal, in the assay with SW-620 colon and with UO-31 renal was above 100 µM throughout.
`COc1ccc(N(/C=C/C(=O)C(F)(F)F)CC(=O)c2ccc(Cl)cc2)cc1`: the GI50 in the assay on CAKI-1 renal was 9.88 µM; in the assay on HCT-15 colon, 13 µM; in the assay with NCI-H23 lung, 15.3 µM; in the assay on RPMI-8226 leukemia, 13.4 µM; with RXF 393 renal it was 16.3 µM; with SF-268 CNS, 16.3 µM. Besides, the GI50 with SK-OV-3 ovarian is 19.2 µM; with SN12C renal it was 11.2 µM; in the assay with SW-620 colon, 19.2 µM; with UO-31 renal, 13.4 µM. The TGI stood at 29.6 µM in the assay on CAKI-1 renal; 26.8 µM in the assay with HCT-15 colon; 35 µM in the assay on NCI-H23 lung; 44.7 µM with RPMI-8226 leukemia; 48.5 µM in the assay on RXF 393 renal; 34.9 µM in the assay on SF-268 CNS. Also, the TGI in the assay with SK-OV-3 ovarian was 36.4 µM; in the assay on SN12C renal it was 23.3 µM; with SW-620 colon it was 41 µM; with UO-31 renal, 28.6 µM.
Regarding `CN1CCN(CCOc2cc(OC3CCOCC3)c3c(Nc4c(Cl)ccc5c4OCO5)ncnc3c2)CC1`, the GI50 in the assay on CAKI-1 renal was 0.571 µM and 0.644 µM; in the assay with HCT-15 colon, 4.18 µM and 3.26 µM; with NCI-H23 lung, 12.2 µM and > 10 µM; with RPMI-8226 leukemia, 19.4 µM and > 10 µM; in the assay on RXF 393 renal, 0.788 µM and 1.02 µM; in the assay on SF-268 CNS it was 4.72 µM and > 10 µM. Besides, the GI50 in the assay on SK-OV-3 ovarian is 0.441 µM and 0.345 µM; with SN12C renal it was 0.736 µM and 3.31 µM; with SW-620 colon, 17.5 µM and > 10 µM; in the assay with UO-31 renal, 0.42 µM and 0.373 µM. For the same compound, the TGI is 10.5 µM and > 10 µM in the assay on CAKI-1 renal; 26.6 µM and > 10 µM in the assay on HCT-15 colon; 57.1 µM and > 10 µM in the assay with NCI-H23 lung; 63.4 µM and > 10 µM in the assay on RPMI-8226 leukemia; 12.6 µM and > 10 µM in the assay on RXF 393 renal; 33.8 µM and > 10 µM in the assay with SF-268 CNS. Further, the TGI was 13.2 µM and > 10 µM with SK-OV-3 ovarian; 27.2 µM and > 10 µM in the assay with SN12C renal; 33.6 µM and > 10 µM in the assay with SW-620 colon; 14.5 µM and > 10 µM with UO-31 renal.
As for `CCOC(=O)/C=C/C(=O)[C@H](CC(C)C)NC(=O)[C@H](Cc1ccccc1)NC(=O)OCc1ccccc1`, the GI50 is 8.82 µM in the assay with CAKI-1 renal; 1.83 µM in the assay on HCT-15 colon; 11.3 µM with NCI-H23 lung; 2.13 µM with RPMI-8226 leukemia; 2.03 µM in the assay with RXF 393 renal; 3.3 µM in the assay with SF-268 CNS. Besides, the GI50 in the assay with SK-OV-3 ovarian was 18.6 µM; in the assay on SW-620 colon, 2.86 µM; with UO-31 renal it was 1.78 µM. The TGI is 21.7 µM with CAKI-1 renal; 3.78 µM in the assay with HCT-15 colon; 32.8 µM in the assay with NCI-H23 lung; 5.97 µM in the assay with RPMI-8226 leukemia; 3.64 µM in the assay with RXF 393 renal; 13.3 µM in the assay with SF-268 CNS. Further, the TGI in the assay on SK-OV-3 ovarian came to 32.6 µM; with SW-620 colon, 8.16 µM; with UO-31 renal it was 3.66 µM.
With `O=c1oc2ccc(-c3ccc(F)cc3F)cc2c(=O)n1-c1ccc(Cl)c(C(F)(F)F)c1`, the GI50 with CAKI-1 renal is 1.91 µM; in the assay with HCT-15 colon, 2.04 µM; in the assay on NCI-H23 lung it was 1.83 µM; in the assay with RPMI-8226 leukemia it was 2.1 µM; in the assay on RXF 393 renal, 1.7 µM; with SF-268 CNS, 2.51 µM. The GI50 in the assay on SK-OV-3 ovarian is 2.01 µM; in the assay with SN12C renal, 2.6 µM; in the assay on SW-620 colon, 3.16 µM; with UO-31 renal it was 2.44 µM. For the same compound, the TGI with CAKI-1 renal was 6.35 µM; in the assay on HCT-15 colon it was 8.19 µM; in the assay with NCI-H23 lung, 4.59 µM; in the assay on RPMI-8226 leukemia, 5.9 µM; in the assay on RXF 393 renal, 4.59 µM; in the assay with SF-268 CNS it was 9.13 µM. The TGI was 5.17 µM in the assay on SK-OV-3 ovarian, 11.7 µM with SN12C renal, 11.7 µM with SW-620 colon and 8.4 µM in the assay on UO-31 renal.
In the case of `CCOc1ccc(O)cc1[P+](c1ccccc1)(c1ccccc1)c1ccccc1`, the TGI is 23.4 µM in the assay with CAKI-1 renal; 5.55 µM in the assay with NCI-H23 lung; 26.5 µM in the assay with RPMI-8226 leukemia; 17.9 µM with RXF 393 renal; above 100 µM in the assay with SF-268 CNS; 27.1 µM with SK-OV-3 ovarian. The results for the TGI in the assay on SN12C renal and with UO-31 renal were 13.7 µM and 52.5 µM, respectively.
With `COC1OC(C)C2OC(C)(C)OC2C1OC(C)=O` (configuration not stated), the TGI in the assay on CAKI-1 renal, in the assay with HCT-15 colon, in the assay with NCI-H23 lung, in the assay with RPMI-8226 leukemia, with RXF 393 renal and with SF-268 CNS was above 100 µM throughout. Moreover, the TGI in the assay on SN12C renal and in the assay on SW-620 colon was above 100 µM each time.
